{"source": "paper PMC7867265", "about": "“Phosphofructokinases A and B from Mycobacterium tuberculosis Display Different Catalytic Properties and Allosteric Regulation” (International Journal of Molecular Sciences, 2021)", "key": {"Pfk A [1]": {"molecular_target": "T1, Pfk A (Mycobacterium tuberculosis, UniProt P9WID7)", "T1 construct": "gene pfkA", "T1 sequence (P9WID7 whole entry)": "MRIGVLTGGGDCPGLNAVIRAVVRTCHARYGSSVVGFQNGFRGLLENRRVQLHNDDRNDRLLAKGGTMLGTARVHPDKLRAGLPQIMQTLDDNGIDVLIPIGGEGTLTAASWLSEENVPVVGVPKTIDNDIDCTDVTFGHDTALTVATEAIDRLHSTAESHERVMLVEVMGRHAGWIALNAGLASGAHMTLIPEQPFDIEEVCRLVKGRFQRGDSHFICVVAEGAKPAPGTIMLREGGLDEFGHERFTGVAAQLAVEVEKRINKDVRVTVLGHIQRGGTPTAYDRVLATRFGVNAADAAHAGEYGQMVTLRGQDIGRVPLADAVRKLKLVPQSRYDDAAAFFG"}, "Pfk A [2]": {"molecular_target": "T1, Pfk A", "remark": "listed apart in the source"}, "Pfk B": {"molecular_target": "T2, Pfk B (Mycobacterium tuberculosis, UniProt P9WID3)", "T2 construct": "gene pfkB", "T2 sequence (P9WID3 whole entry)": "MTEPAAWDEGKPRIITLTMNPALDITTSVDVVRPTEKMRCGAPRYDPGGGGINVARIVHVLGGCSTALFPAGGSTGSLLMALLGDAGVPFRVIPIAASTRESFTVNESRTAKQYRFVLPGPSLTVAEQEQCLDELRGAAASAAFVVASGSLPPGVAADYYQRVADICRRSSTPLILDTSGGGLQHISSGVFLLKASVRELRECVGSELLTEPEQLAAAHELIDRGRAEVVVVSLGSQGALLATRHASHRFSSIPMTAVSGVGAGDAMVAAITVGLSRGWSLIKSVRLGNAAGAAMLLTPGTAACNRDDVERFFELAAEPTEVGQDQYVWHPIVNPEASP"}, "Pfk A [3]": {"molecular_target": "T1, Pfk A", "remark": "listed apart in the source"}, "Pfk A [4]": {"molecular_target": "T1, Pfk A", "remark": "listed apart in the source"}}, "data": [{"smiles": "O=P(O)(O)OC[C@H]1OC(O)(CO)[C@@H](O)[C@@H]1O", "note": "(some centres unmarked) [F6P]", "values": [{"measurement": "K1/2 (Km)", "setting": "Pfk A [1]", "result": "13.2 ± 2.0", "unit": "mM"}]}, {"smiles": "O=P(O)(O)OC[C@H]1O[C@@](CO)(OP(=O)(O)O)[C@@H](O)[C@@H]1O", "note": "[F26bP]", "values": [{"measurement": "% activation at 100 μM", "setting": "Pfk A [2]", "result": 10, "unit": "%"}, {"measurement": "% activation at 100 μM", "setting": "Pfk B", "result": 20, "unit": "%"}]}, {"smiles": "O=C(O)CC(O)(CC(=O)O)C(=O)O", "note": "[citrate]", "values": [{"measurement": "inhibition, coupled assay I", "setting": "Pfk A [3]", "result": "Citrate also inhibited Pfk A, however, in millimolar concentrations"}]}, {"smiles": "Nc1ncnc2c1ncn2[C@@H]1O[C@H](COP(=O)(O)OP(=O)(O)OP(=O)(O)O)[C@@H](O)[C@H]1O", "note": "[ATP]", "values": [{"measurement": "K1/2 (Km)", "setting": "Pfk A [1]", "result": "1.5 ± 0.3", "unit": "mM"}]}, {"smiles": "Nc1nc2c(ncn2[C@@H]2O[C@H](COP(=O)(O)OP(=O)(O)O)[C@@H](O)[C@H]2O)c(=O)[nH]1", "note": "[GDP]", "values": [{"measurement": "inhibition, coupled assay I", "setting": "Pfk A [3]", "result": "Pfk A was found to be efficiently inhibited also by GDP within the millimolar concentration range"}]}, {"smiles": "O=P(O)(O)OC[C@H]1OC(O)(COP(=O)(O)O)[C@@H](O)[C@@H]1O", "note": "(some centres unmarked) [F16bP]", "values": [{"measurement": "feedback inhibition, modified coupled assay II", "setting": "Pfk A [4]", "result": "Pfk A was efficiently inhibited by F16bP within the low micromolar concentration range"}]}, {"smiles": "C=C(OP(=O)(O)O)C(=O)O", "note": "[PEP]", "values": [{"measurement": "inhibition, coupled assay I", "setting": "Pfk A [3]", "result": "efficient Pfk A inhibition can be achieved by a low micromolar concentration of this metabolite"}]}]}
